Test results: ChEMBL document CHEMBL1667796, “Synthesis and evaluation of phosphonated N-heteroarylcarboxamides as DOXP-reductoisomerase (DXR) inhibitors” (Bioorg Med Chem, 2011)
The source made the active and inactive calls. The calls are words filed in the database; no cut-off is given here.

Tests used:
Escherichia coli [1] = experiment: Binding affinity at Escherichia coli DXR by saturation transfer difference NMR spectroscopy
Escherichia coli [2] = experiment: Inhibition of Escherichia coli DXR assessed as conversion of NADPH to NADP at 500 uM by spectrophotometry
[3] = Inhibition of Escherichia coli DXR assessed as conversion of NADPH to NADP by spectrophotometry
Escherichia coli [4] = experiment: Inhibition of Escherichia coli DXR assessed as conversion of NADPH to NADP at 0.3 uM by spectrophotometry

| inhibition (Escherichia coli [4]) | SMILES | Activity (Escherichia coli [1]) | inhibition (Escherichia coli [2]) | IC50 ([3]; read-out: IC50) | IC50 [3] |
| --- | --- | --- | --- | --- | --- |
| – | CC(=O)c1sc(NC(=O)CP(=O)(O)O)nc1C | Active | 16.6% | > 1500 µM | – |
| – | CCOP(=O)(CC(=O)Nc1ccccn1)OCC | Active | 58.5% | 472 µM | – |
| – | O=C(CP(=O)(O)O)Nc1ccon1 | Active | 12.2% | > 1500 µM | – |
| – | CCOP(=O)(CC(=O)NCc1ccco1)OCC | Active | 67.7% | 408 µM | – |
| – | O=C(CP(=O)(O)O)NCc1ccco1 | Active | 30% | 1030 µM | – |
| – | O=C(CP(=O)(O)O)Nc1nccs1 | Active | 7.4% | > 1500 µM | – |
| – | CCOP(=O)(CC(=O)Nc1nc(C)c(C(C)=O)s1)OCC | Active | – | 1290 µM | – |
| – | CCOP(=O)(CC(=O)Nc1nccs1)OCC | Active | 28.9% | 730 µM | – |
| – | CCOP(=O)(CC(=O)Nc1ccon1)OCC | Active | 11.7% | 1170 µM | – |
| – | O=C(CP(=O)([O-])[O-])Nc1ccccn1.[Na+].[Na+] | Active | inactive | – | Not Active |
| 99.3% | O=CN(O)CCCP(=O)(O)O | – | – | – | – |
